Laboratory results as given in patent publication US20260174778A1, “SULFONAMIDE COMPOUND, AND PREPARATION METHOD THEREFOR AND USE THEREOF” (SHANGHAI HENLIUS BIOTECH, INC., priority 2023, published 2026).

System: human breast cancer ZR-75-1 cell xenograft tumor
Test: Anti-tumor effect in ER+KAT6high breast cancer cell xenograft tumor model (Test Example 5)
Type: in vivo, Balb/c nude mice
Settings: for T/C / TGI / mean tumor volume: day 35; for body weight changes compared to the PF-8144 group: all doses (0.01, 0.1, 2 mg/kg)
Description: Test Example 5: Anti-Tumor Effects of Test Compounds in ER^+KAT6^high Breast Cancer Cell-Xenograft Tumor Model
Assay method: ZR-75-1 cells were subcutaneously inoculated into the right back of each mouse to evaluate the efficacy of the compounds in the subcutaneous xenograft tumor model of ZR-75-1 cells.
• 1. Cell culture: ZR-75-1 cells were cultured as a monolayer in vitro under the following culture conditions: an RPMI 1640 medium supplemented with 10% fetal bovine serum and 1% Anti-anti (Antibiotic-Antimycotic), incubated in an incubator at 37° C. with 5% CO2. The cells were digested with trypsin-EDTA twice a week for passaging as per conventional practice. When the cell saturation reached 80%-90% and the quantity met the requirement, the cells were harvested, counted, and inoculated. • 2. Animals: Balb/c nude mice, female, 6-8 weeks old, weighing 18-22 g. A total of 128 mice were required (80 mice were enrolled). They were provided by Vital River. • 3. Tumor inoculation: Two days before tumor inoculation, 17-beta estradiol tablets (0.18 mg) were subcutaneously administered, and 10 million ZR-75-1 tumor cells+matrigel (total […]) were subcutaneously inoculated into the right back of each mouse. When the mean tumor volume reached about 137 mm^3, the mice were grouped for administration. • 4. Experimental administration: The compounds were dissolved in 5% DMSO+5% Tween 80+90% Saline, and administered intragastrically (PO) daily for five weeks. • 5. Experimental indicators: The experimental indicators were to investigate whether the tumor growth was inhibited or delayed or the tumor was cured. Tumor diameters were measured twice weekly using a vernier caliper. The tumor volume was calculated using the following formula: V=0.5a×b^2, where a and b represent the long diameter and short diameter of the tumor, respectively. • 6. The anti-tumor efficacy of the compounds was evaluated by TGI (%) or relative tumor proliferation rate T/C (%). TGI (%) refers to the tumor growth inhibition rate. Calculation of TGI (%):TGI (%)=[(1−(mean tumor volume at the end of administration in a treatment group—mean tumor volume at the start of administration in the treatment group))/(mean tumor volume at the end of treatment in the solvent control group—mean tumor volume at the start of treatment in the solvent control group)]×100%. The calculation formula for the relative tumor proliferation rate T/C (%) was as follows: T/C %=TRTV/CRTV×100% (TRTV:RTV of the treatment group; CRTV:RTV of the negative control group). The relative tumor volume (RTV) was calculated based on the tumor measurement results using the following formula: RTV=Vt/V0, where V0 represents the mean tumor volume measured at the time of grouping for administration (i.e., PG-D0), and Vt represents the mean tumor volume at a certain measurement. TRTV and CRTV were derived from data measured on the same day.
The mean and standard error of mean (SEM) of tumor volume at each time point for each group were included. The differences in tumor volume and tumor weight among the groups were statistically analyzed. For comparisons among three or more groups, one-way ANOVA was used for analysis. […] The analysis was performed using SPSS 17.0, and p<0.05 was considered to indicate a significant difference.
For comparisons between different doses of the same drug or different drugs at the same dose, two-way ANOVA was used for analysis, and the Bonferroni method was applied for testing. The analysis was performed using GraphPad Prism 9.0, and p<0.05 was considered to indicate a significant difference. On day 35 after the start of administration, the data between different doses of the same drug or different drugs at the same dose were analyzed using one-way ANOVA. […] The analysis was performed using SPSS 17.0, and p<0.05 was considered to indicate a significant difference.

SMILES | T/C (0.01 mg/kg PO QD) | TGI (0.01 mg/kg PO QD) | mean tumor volume (0.01 mg/kg PO QD) | efficacy compared to PF-8144 (0.1 mg/kg PO QD) | T/C (0.1 mg/kg PO QD) | TGI (0.1 mg/kg PO QD) | mean tumor volume (0.1 mg/kg PO QD) | T/C (2 mg/kg PO QD) | TGI (2 mg/kg PO QD) | mean tumor volume (2 mg/kg PO QD) | body weight changes compared to the PF-8144 group
COc1ccc2c(c1S(=O)(=O)Nc1noc3cc(Cn4cccn4)c(F)c(OC)c13)OCCO2 [Compound 28, N-(6-((1H-Pyrazol-1-yl)methyl)-5-fluoro-4-methoxybenzo[d]isoxazol-3-yl)-6-methoxy-2,3-dihydrobenzo[b][1,4]dioxine-5-sulfonamide] | 76.14% | 30.94% | 1,017 mm^3 | significantly superior in efficacy to PF-8144 | 11.36% | 98.07% | 162 mm^3 | 0.84% | 109.69% | 12 mm^3 | no statistically significant difference
COc1ccc2c(c1S(=O)(=O)Nc1noc3cc(Cn4cccn4)c(F)c(OC)c13)OCC=C2 [Compound 101, N-(6-((1H-Pyrazol-1-yl)methyl)-5-fluoro-4-methoxybenzo[d]isoxazol-3-yl)-7-methoxy-2H-chromene-8-sulfonamide] | 19.06% | 89.81% | 264 mm^3 | significantly superior in efficacy to PF-8144 | 1.79% | 108.64% | 25 mm^3 | 0.96% | 109.56% | 14 mm^3 | no statistically significant difference
COc1ccccc1S(=O)(=O)Nc1noc2cc(Cn3cccn3)cc(OC)c12 [PF-8144, reference compound] | 72.71% | 30.19% | 1,035 mm^3 | – | 40.77% | 65.53% | 580 mm^3 | 2.51% | 107.85% | 36 mm^3 | –
